Reference: publication PMC12582971, “NeuproGemp, a polyphenol-rich botanical formula, ameliorates Alzheimer’s-like pathology in APP/PS1 mice via inhibition of human glutaminyl cyclase” (Frontiers in Pharmacology, 2025)

Target: T1, human glutaminyl cyclase (hQC) (Homo sapiens, UniProt Q16769)
T1 construct: covering residues Ala33 to Leu361, was cloned into the pQE-80L expression vector; polyhistidine tag; made in house; host or cells: E. coli BL21 (DE3)
Assay: hQC inhibition assay (coupled spectrophotometric, H-Gln-Gln-OH substrate)
Type: biochemical
Details: for inhibitory effect on hQC (in words): dose-response assay; for IC50: 0.1 μM hQC, 1 mM H-Gln-Gln-OH, 25 °C, pH 8.0, mean ± SD, three experiments, read-out: IC50 against hQC
Method: The coding sequence of human glutaminyl cyclase (hQC), covering residues Ala33 to Leu361, was cloned into the pQE-80L expression vector utilizing the restriction sites BamHI and HindIII. This recombinant plasmid was introduced into E. coli BL21 (DE3) cells through heat shock transformation. For protein expression, the transformed E. coli cells were grown in Luria-Bertani (LB) medium supplemented with 100 mg/L ampicillin at 37 °C. Once the optical density at 600 nm (OD600) reached 0.6, protein expression was induced using 0.1 mM isopropyl β-D-1-thiogalactopyranoside (IPTG), and the culture was incubated at 24 °C for 48 h, optimizing for soluble protein yield under reduced temperature conditions. After induction, the cells were harvested by centrifugation at 6,000 rpm for 20 min. The resulting cell pellet was resuspended in a lysis buffer containing 50 mM Tris-HCl (pH 8.5), 150 mM NaCl, and 20 mM imidazole. Cell disruption was performed using high-pressure homogenization via a microfluidizer (Microfluidics). The lysate was clarified through centrifugation, and the soluble protein fraction was purified using nickel-nitrilotriacetic acid (Ni-NTA) affinity chromatography, leveraging the polyhistidine tag for selective binding to the resin. The bound hQC protein was eluted and further purified using standard chromatographic techniques.
The inhibitory effects of various compounds on human glutaminyl cyclase (hQC) were assessed using a validated spectrophotometric assay. In this assay, glutamic dehydrogenase (EC 1.4.1.3; Sigma-Aldrich) was utilized as a coupling enzyme to indirectly quantify hQC activity, employing H-Gln-Gln-OH (Bachem) as the specific substrate. The reaction mixture consisted of 50 mM Tris-HCl (pH 8.0), 0.25 mM NADH, 30 U of glutamic dehydrogenase, 15 mM α-ketoglutaric acid, and 0.1 μM hQC. Inhibitors were introduced to the reaction mixture and allowed to incubate for 5 min at 25 °C to promote interaction with the enzyme. The enzymatic reaction was initiated by adding 1 mM of the substrate, and the progression was monitored by measuring the absorbance at 340 nm, corresponding to the oxidation of NADH. The IC50 values for the inhibitors were calculated by plotting initial reaction rates against the logarithmic concentrations of the inhibitors. Nonlinear regression fitting was conducted using GraphPad Prism 6 software, enabling accurate quantification of the inhibitors’ potencies and facilitating a detailed analysis of their inhibitory effects on hQC.
The enzymatic activity of recombinant hQC was measured using a coupled spectrophotometric assay with H-Gln-Gln-OH as substrate and glutamic dehydrogenase as a coupling enzyme. […] Initial reaction rates were monitored by measuring NADH oxidation at 340 nm, and IC50 values were calculated using nonlinear regression in GraphPad Prism 6. Data are presented as mean ± SD from three independent experiments. Lower IC50 values indicate stronger inhibition of hQC activity.

T1 sequence (Q16769 33-361): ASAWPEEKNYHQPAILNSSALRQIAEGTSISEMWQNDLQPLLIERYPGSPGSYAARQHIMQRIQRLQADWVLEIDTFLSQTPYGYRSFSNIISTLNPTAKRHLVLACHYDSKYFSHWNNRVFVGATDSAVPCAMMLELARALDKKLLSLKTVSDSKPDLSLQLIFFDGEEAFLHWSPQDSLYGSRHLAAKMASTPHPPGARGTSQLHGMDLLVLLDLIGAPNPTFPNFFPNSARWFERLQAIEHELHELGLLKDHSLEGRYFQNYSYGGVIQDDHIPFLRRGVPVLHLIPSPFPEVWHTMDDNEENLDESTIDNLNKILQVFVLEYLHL

| SMILES | hQC activity suppression at 100 μM | inhibitory effect on hQC (in words) | IC50 [nM] |
| --- | --- | --- | --- |
| O=C(OCC1OC(OC(=O)c2cc(O)c(O)c(O)c2)C(O)C(OC(=O)c2cc(O)c(O)c(O)c2)C1O)c1cc(O)c(O)c(O)c1 (stereo not drawn) [GG3, 1,3,6-Trigalloylglucose] | – | only weak inhibitory effects | 4190 |
| O=C(/C=C/c1ccccc1)OC[C@H]1O[C@@H](OC(=O)c2cc(O)c(O)c(O)c2)[C@H](O)[C@@H](O)[C@@H]1O [1-o-galloyl-6-o-cinnamoylglucose] | less than 50% | minimal to no significant inhibition | – |
| OCc1ccc(O[C@@H]2O[C@H](CO)[C@@H](O)[C@H](O)[C@H]2O)cc1 [Gastrodin] | less than 50% | only weak inhibitory effects | – |

Continued, values first:

| hQC activity suppression at 100 μM | inhibitory effect on hQC (in words) | IC50 [nM] | SMILES |
| --- | --- | --- | --- |
| less than 50% | minimal to no significant inhibition | – | C[C@@]12C[C@@]3(O)O[C@@H](O1)[C@]1(COC(=O)c4ccccc4)[C@H]3C[C@@]12O[C@@H]1O[C@H](CO)[C@@H](O)[C@H](O)[C@H]1O [Paeoniflorin] |
| – | – | 1430 | O=C(OCC1OC(OC(=O)c2cc(O)c(O)c(O)c2)C(OC(=O)c2cc(O)c(O)c(O)c2)C(OC(=O)c2cc(O)c(O)c(O)c2)C1O)c1cc(O)c(O)c(O)c1 (stereo not drawn) [GG4, 1,2,3,6-Tetragalloylglucose] |
